According to US8921397B2, “Benzofurane-piperidine compounds” (Hoffmann-La Roche Inc., priority 2011, dated 2014):

How the values were obtained:
human D2 receptor = human D2 receptor (Homo sapiens (Human), UniProt P14416); test: Radioligand binding ([3H]-spiperone) to human D2 receptor, HEK293 EBNA membranes; conditions: HEK293 EBNA cells expressing human D2 receptor
Method in brief: (§1)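 Membranes from transiently transfected HEK293 EBNA cells (~7.5 μg protein/well) were incubated 1 h at RT with [3H]-spiperone (~0.7 nM for D2, 0.5 nM for D3) and ten compound concentrations (10 μM–0.1 nM) in Tris/NaCl/MgCl2/CaCl2 buffer pH 7.4. Filtration and scintillation counting, nonspecific with 10 μM spiperone; Ki via Cheng-Prusoff.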

human D3 receptor = human D3 receptor (Homo sapiens (Human), UniProt P35462); test: Radioligand binding ([3H]-spiperone) to human D3 receptor, HEK293 EBNA membranes; conditions: HEK293 EBNA cells expressing human D3 receptor
Chain of human D3 receptor (P35462 whole entry): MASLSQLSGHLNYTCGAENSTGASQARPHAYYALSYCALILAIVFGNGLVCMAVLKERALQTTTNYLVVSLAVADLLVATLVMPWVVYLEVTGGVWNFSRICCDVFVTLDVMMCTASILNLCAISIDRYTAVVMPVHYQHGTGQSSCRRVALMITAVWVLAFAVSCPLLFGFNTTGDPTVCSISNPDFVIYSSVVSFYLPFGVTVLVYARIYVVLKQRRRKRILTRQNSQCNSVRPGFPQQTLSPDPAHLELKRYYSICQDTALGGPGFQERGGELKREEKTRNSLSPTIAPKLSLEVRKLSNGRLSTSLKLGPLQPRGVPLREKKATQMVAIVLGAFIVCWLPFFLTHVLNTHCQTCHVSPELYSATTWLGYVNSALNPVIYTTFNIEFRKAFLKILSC
Method in brief: as §1

human 5-HT2A receptor = human 5-HT2A receptor (Homo sapiens (Human), UniProt P28223); test: Radioligand binding ([3H]-ketanserin) to human 5-HT2A receptor, HEK293 EBNA membranes; conditions: HEK293 EBNA cells expressing human 5-HT2A receptor
Chain of human 5-HT2A receptor (P28223 whole entry): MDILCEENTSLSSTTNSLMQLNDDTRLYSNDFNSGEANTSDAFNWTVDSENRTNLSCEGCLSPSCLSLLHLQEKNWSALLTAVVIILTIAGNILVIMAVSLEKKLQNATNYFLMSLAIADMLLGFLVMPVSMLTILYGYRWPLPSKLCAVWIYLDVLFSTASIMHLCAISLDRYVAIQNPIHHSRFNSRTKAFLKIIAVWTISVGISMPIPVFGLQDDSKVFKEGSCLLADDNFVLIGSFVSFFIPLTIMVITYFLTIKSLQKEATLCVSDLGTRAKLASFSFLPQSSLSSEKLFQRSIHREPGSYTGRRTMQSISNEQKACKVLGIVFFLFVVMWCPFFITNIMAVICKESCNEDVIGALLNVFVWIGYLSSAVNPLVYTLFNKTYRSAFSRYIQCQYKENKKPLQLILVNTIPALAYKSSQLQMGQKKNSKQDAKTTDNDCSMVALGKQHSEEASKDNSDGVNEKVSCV
Method in brief: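 Membranes from HEK293 EBNA cells transiently expressing the human receptor were incubated 1 h at RT with ~0.7 nM (D2) or 0.5 nM (D3) [3H]-spiperone, or 1.1 nM [3H]-ketanserin (5-HT2A), plus ten compound concentrations (10 μM–0.1 nM). Nonspecific binding was set with 10 μM spiperone; Ki was derived from IC50 via Cheng-Prusoff.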

Chain of human D2 receptor (P14416 whole entry): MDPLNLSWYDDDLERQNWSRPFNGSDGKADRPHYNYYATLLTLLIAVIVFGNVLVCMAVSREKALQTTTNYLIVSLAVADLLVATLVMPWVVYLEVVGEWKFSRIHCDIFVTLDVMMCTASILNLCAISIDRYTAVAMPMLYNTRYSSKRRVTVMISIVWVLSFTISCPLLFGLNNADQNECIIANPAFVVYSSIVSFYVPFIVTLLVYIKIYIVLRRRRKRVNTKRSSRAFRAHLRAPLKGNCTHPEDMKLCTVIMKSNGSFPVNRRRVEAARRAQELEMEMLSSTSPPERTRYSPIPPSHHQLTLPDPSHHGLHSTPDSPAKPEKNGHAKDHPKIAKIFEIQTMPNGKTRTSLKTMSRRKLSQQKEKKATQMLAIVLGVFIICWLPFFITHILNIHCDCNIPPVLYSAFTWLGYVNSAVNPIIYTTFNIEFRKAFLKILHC

Structure (SMILES)	Ki (human D2 receptor)	Ki (human D3 receptor)	Ki (human 5-HT2A receptor)	melting point
CS(=O)(=O)c1ccc(C(=O)N[C@H]2CC[C@H](CCN3CCC(c4coc5ccccc45)CC3)CC2)cc1 [Example 86, trans-N-{4-[2-(4-Benzofuran-3-yl-piperidin-1-yl)-ethyl]-cyclohexyl}-4-methanesulfonyl-benzamide]	79.5 nM	25 nM	5.79 nM	224 °C
O=C(N[C@H]1CC[C@H](CCN2CCC(c3coc4ccccc34)CC2)CC1)c1ccc(Cl)cc1Cl [Example 87, trans-N-{4-[2-(4-Benzofuran-3-yl-piperidin-1-yl)-ethyl]-cyclohexyl}-2,4-dichloro-benzamide]	38.2 nM	4.37 nM	12.3 nM	187 °C
CC(C)(C)c1ccc(S(=O)(=O)N[C@H]2CC[C@H](CCN3CCC(c4coc5ccccc45)CC3)CC2)cc1 [Example 88, trans-N-{4-[2-(4-Benzofuran-3-yl-piperidin-1-yl)-ethyl]-cyclohexyl}-4-tert-butyl-benzenesulfonamide]	70 nM	12.1 nM	31.5 nM	171 °C
